According to patent US6358885B1, “Substituted phenylheterocyclic herbicides” (Mississippi State University, priority 1992, dated 2002):

What was measured:
Experiment in all cases: Test B preemergence/postemergence greenhouse plant response rating 0 to 10
[1] = test system: wild buckwheat; format: in vivo, Polygonum convolvulus; conditions: for Plant response rating, Wild buckwheat: 0 to 10 scale
From the text: (§1) Seeds of barley (Hordeum vulgare), barnyardgrass (Echinochloa crus-galli), bedstraw (Galium aparine), blackgrass (Alopecurus myosuroides), […] (Bromus secalinus), chickweed (Stellaria media), cocklebur (Xanthium pensylvanicum), corn (Zea mays), cotton (Gossypium hirsutum), crabgrass (Digitaria spp.), giant foxtail (Setaria faberii), lambsquarters (Chenopodium album), morningglory (Ipomoea hederacea), rape (Brassica napus), rice (Oryza sativa), sorghum (Sorghum bicolor), soybean (Glycine max), sugar beet (Beta vulgaris), velvetleaf (Abutilon theophrasti), wheat (Triticum aestivum), wild buckwheat (Polygonum convolvulus), and wild oat (Avena fatua) and purple nutsedge. (Cyperus rotundus) tubers were planted and treated preemergence with test chemicals dissolved in a non-phytotoxic solvent. At the same time, these crop and weed species were also treated with postemergence applications of test chemicals. Plants ranged in height from two to eighteen cm (one to four leaf stage) for postemergence treatments. Treated plants and controls were maintained in a greenhouse for twelve to sixteen days, after which all species were compared to controls and visually evaluated. […] A dash (-) response means no test result.

[2] = test system: crabgrass; format: in vivo, Digitaria spp.; conditions: for Plant response rating, Crabgrass: 0 to 10 scale
From the text: as §1

[3] = test system: chickweed; format: in vivo, Stellaria media; conditions: for Plant response rating, Chickweed: 0 to 10 scale
From the text: as §1

[4] = test system: wheat; format: in vivo, Triticum aestivum; conditions: for Plant response rating, Wheat: 0 to 10 scale
From the text: as §1

[5] = test system: blackgrass; format: in vivo, Alopecurus myosuroides; conditions: for Plant response rating, Blackgrass: 0 to 10 scale
From the text: as §1

[6] = test system: purple nutsedge; format: in vivo, Cyperus rotundus; conditions: for Plant response rating, Nutsedge: 0 to 10 scale
From the text: as §1

[7] = test system: rape; format: in vivo, Brassica napus; conditions: for Plant response rating, Rape: 0 to 10 scale
From the text: as §1

[8] = test system: barnyardgrass; format: in vivo, Echinochloa crus-galli; conditions: for Plant response rating, Barnyardgrass: 0 to 10 scale
From the text: as §1

[9] = test system: sugar beet; format: in vivo, Beta vulgaris; conditions: for Plant response rating, Sugar beet: 0 to 10 scale
From the text: as §1

[10] = test system: morningglory; format: in vivo, Ipomoea hederacea; conditions: for Plant response rating, Morningglory: 0 to 10 scale
From the text: as §1

[11] = test system: lambsquarters; format: in vivo, Chenopodium album; conditions: for Plant response rating, Lambsquarter: 0 to 10 scale
From the text: as §1

[12] = test system: cheatgrass; format: in vivo, Bromus secalinus; conditions: for Plant response rating, Cheatgrass: 0 to 10 scale
From the text: as §1

[13] = test system: velvetleaf; format: in vivo, Abutilon theophrasti; conditions: for Plant response rating, Velvetleaf: 0 to 10 scale
From the text: as §1

[14] = test system: corn; format: in vivo, Zea mays; conditions: for Plant response rating, Corn: 0 to 10 scale
From the text: as §1

[15] = test system: soybean; format: in vivo, Glycine max; conditions: for Plant response rating, Soybean: 0 to 10 scale
From the text: as §1

[16] = test system: sorghum; format: in vivo, Sorghum bicolor; conditions: for Plant response rating, Sorghum: 0 to 10 scale
From the text: as §1

[17] = test system: barley; format: in vivo, Hordeum vulgare; conditions: for Plant response rating, Barley: 0 to 10 scale
From the text: as §1

[18] = test system: cotton; format: in vivo, Gossypium hirsutum; conditions: for Plant response rating, Cotton: 0 to 10 scale
From the text: as §1

[19] = test system: bedstraw; format: in vivo, Galium aparine; conditions: for Plant response rating, Bedstraw: 0 to 10 scale
From the text: as §1

[20] = test system: wild oat; format: in vivo, Avena fatua; conditions: for Plant response rating, Wild oat: 0 to 10 scale
From the text: as §1

[21] = test system: cocklebur; format: in vivo, Xanthium pensylvanicum; conditions: for Plant response rating, Cocklebur: 0 to 10 scale
From the text: as §1

[22] = test system: rice; format: in vivo, Oryza sativa; conditions: for Plant response rating, Rice: 0 to 10 scale
From the text: as §1

[23] = test system: giant foxtail; format: in vivo, Setaria faberii; conditions: for Plant response rating, Giant foxtail: 0 to 10 scale
From the text: as §1

SMILES: O=C1COc2cc(F)c(-c3nn4c(c3Br)CCCC4)cc2N1 [Compound 80]
- Plant response rating, Wild buckwheat ([1]; POSTEMERGENCE, Rate 50 g/ha): 10
- Plant response rating, Wild buckwheat ([1]; PREEMERGENCE, Rate 50 g/ha): 3
- Plant response rating (0 to 10 scale), Wild buckwheat ([1]; PREEMERGENCE, Rate 200 g/ha): 3
- Plant response rating, Wild buckwheat ([1]; Rate 200 g/ha, POSTEMERGENCE): 10
- Plant response rating, Crabgrass ([2]; POSTEMERGENCE, Rate 50 g/ha): 4
- Plant response rating, Crabgrass ([2]; PREEMERGENCE, Rate 50 g/ha): 0
- Plant response rating (0 to 10 scale), Crabgrass ([2]; PREEMERGENCE, Rate 200 g/ha): 3
- Plant response rating, Crabgrass ([2]; Rate 200 g/ha, POSTEMERGENCE): 6
- Plant response rating, Chickweed ([3]; POSTEMERGENCE, Rate 50 g/ha): 4
- Plant response rating, Chickweed ([3]; PREEMERGENCE, Rate 50 g/ha): 0
- Plant response rating (0 to 10 scale), Chickweed ([3]; PREEMERGENCE, Rate 200 g/ha): 3
- Plant response rating, Chickweed ([3]; Rate 200 g/ha, POSTEMERGENCE): 7
- Plant response rating, Wheat ([4]; POSTEMERGENCE, Rate 50 g/ha): 4
- Plant response rating, Wheat ([4]; PREEMERGENCE, Rate 50 g/ha): 0
- Plant response rating (0 to 10 scale), Wheat ([4]; PREEMERGENCE, Rate 200 g/ha): 2
- Plant response rating, Wheat ([4]; Rate 200 g/ha, POSTEMERGENCE): 4
- Plant response rating, Blackgrass ([5]; POSTEMERGENCE, Rate 50 g/ha): 3
- Plant response rating, Blackgrass ([5]; PREEMERGENCE, Rate 50 g/ha): 0
- Plant response rating (0 to 10 scale), Blackgrass ([5]; PREEMERGENCE, Rate 200 g/ha): 3
- Plant response rating, Blackgrass ([5]; Rate 200 g/ha, POSTEMERGENCE): 6
- Plant response rating, Nutsedge ([6]; POSTEMERGENCE, Rate 50 g/ha): 2
- Plant response rating, Nutsedge ([6]; PREEMERGENCE, Rate 50 g/ha): 0
- Plant response rating (0 to 10 scale), Nutsedge ([6]; PREEMERGENCE, Rate 200 g/ha): 0
- Plant response rating, Nutsedge ([6]; Rate 200 g/ha, POSTEMERGENCE): 4
- Plant response rating, Rape ([7]; POSTEMERGENCE, Rate 50 g/ha): 10
- Plant response rating, Rape ([7]; PREEMERGENCE, Rate 50 g/ha): 4
- Plant response rating (0 to 10 scale), Rape ([7]; PREEMERGENCE, Rate 200 g/ha): 10
- Plant response rating, Rape ([7]; Rate 200 g/ha, POSTEMERGENCE): 10
- Plant response rating, Barnyardgrass ([8]; POSTEMERGENCE, Rate 50 g/ha): 6
- Plant response rating, Barnyardgrass ([8]; PREEMERGENCE, Rate 50 g/ha): 0
- Plant response rating (0 to 10 scale), Barnyardgrass ([8]; PREEMERGENCE, Rate 200 g/ha): 6
- Plant response rating, Barnyardgrass ([8]; Rate 200 g/ha, POSTEMERGENCE): 8
- Plant response rating, Sugar beet ([9]; POSTEMERGENCE, Rate 50 g/ha): 10
- Plant response rating, Sugar beet ([9]; PREEMERGENCE, Rate 50 g/ha): 8
- Plant response rating (0 to 10 scale), Sugar beet ([9]; PREEMERGENCE, Rate 200 g/ha): 9
- Plant response rating, Sugar beet ([9]; Rate 200 g/ha, POSTEMERGENCE): 10
- Plant response rating, Morningglory ([10]; POSTEMERGENCE, Rate 50 g/ha): 10
- Plant response rating, Morningglory ([10]; PREEMERGENCE, Rate 50 g/ha): 5
- Plant response rating (0 to 10 scale), Morningglory ([10]; PREEMERGENCE, Rate 200 g/ha): 10
- Plant response rating, Morningglory ([10]; Rate 200 g/ha, POSTEMERGENCE): 10
- Plant response rating, Lambsquarter ([11]; POSTEMERGENCE, Rate 50 g/ha): 10
- Plant response rating, Lambsquarter ([11]; PREEMERGENCE, Rate 50 g/ha): 10
- Plant response rating (0 to 10 scale), Lambsquarter ([11]; PREEMERGENCE, Rate 200 g/ha): 10
- Plant response rating, Lambsquarter ([11]; Rate 200 g/ha, POSTEMERGENCE): 10
- Plant response rating, Cheatgrass ([12]; POSTEMERGENCE, Rate 50 g/ha): 5
- Plant response rating, Cheatgrass ([12]; PREEMERGENCE, Rate 50 g/ha): 2
- Plant response rating (0 to 10 scale), Cheatgrass ([12]; PREEMERGENCE, Rate 200 g/ha): 3
- Plant response rating, Cheatgrass ([12]; Rate 200 g/ha, POSTEMERGENCE): 6
- Plant response rating, Velvetleaf ([13]; POSTEMERGENCE, Rate 50 g/ha): 9
- Plant response rating, Velvetleaf ([13]; PREEMERGENCE, Rate 50 g/ha): 9
- Plant response rating (0 to 10 scale), Velvetleaf ([13]; PREEMERGENCE, Rate 200 g/ha): 10
- Plant response rating, Velvetleaf ([13]; Rate 200 g/ha, POSTEMERGENCE): 10
- Plant response rating, Corn ([14]; POSTEMERGENCE, Rate 50 g/ha): 4
- Plant response rating, Corn ([14]; PREEMERGENCE, Rate 50 g/ha): 0
- Plant response rating (0 to 10 scale), Corn ([14]; PREEMERGENCE, Rate 200 g/ha): 0
- Plant response rating, Corn ([14]; Rate 200 g/ha, POSTEMERGENCE): 5
- Plant response rating, Soybean ([15]; POSTEMERGENCE, Rate 50 g/ha): 8
- Plant response rating, Soybean ([15]; PREEMERGENCE, Rate 50 g/ha): 0
- Plant response rating (0 to 10 scale), Soybean ([15]; PREEMERGENCE, Rate 200 g/ha): 0
- Plant response rating, Soybean ([15]; Rate 200 g/ha, POSTEMERGENCE): 9
- Plant response rating, Sorghum ([16]; POSTEMERGENCE, Rate 50 g/ha): 4
- Plant response rating, Sorghum ([16]; PREEMERGENCE, Rate 50 g/ha): 0
- Plant response rating (0 to 10 scale), Sorghum ([16]; PREEMERGENCE, Rate 200 g/ha): 0
- Plant response rating, Sorghum ([16]; Rate 200 g/ha, POSTEMERGENCE): 6
- Plant response rating, Barley ([17]; POSTEMERGENCE, Rate 50 g/ha): 3
- Plant response rating, Barley ([17]; PREEMERGENCE, Rate 50 g/ha): 0
- Plant response rating (0 to 10 scale), Barley ([17]; PREEMERGENCE, Rate 200 g/ha): 0
- Plant response rating, Barley ([17]; Rate 200 g/ha, POSTEMERGENCE): 4
- Plant response rating, Cotton ([18]; POSTEMERGENCE, Rate 50 g/ha): 10
- Plant response rating, Cotton ([18]; PREEMERGENCE, Rate 50 g/ha): 0
- Plant response rating (0 to 10 scale), Cotton ([18]; PREEMERGENCE, Rate 200 g/ha): 0
- Plant response rating, Cotton ([18]; Rate 200 g/ha, POSTEMERGENCE): 10
- Plant response rating, Bedstraw ([19]; POSTEMERGENCE, Rate 50 g/ha): 8
- Plant response rating, Bedstraw ([19]; PREEMERGENCE, Rate 50 g/ha): 0
- Plant response rating (0 to 10 scale), Bedstraw ([19]; PREEMERGENCE, Rate 200 g/ha): 2
- Plant response rating, Bedstraw ([19]; Rate 200 g/ha, POSTEMERGENCE): 10
- Plant response rating, Wild oat ([20]; POSTEMERGENCE, Rate 50 g/ha): 4
- Plant response rating, Wild oat ([20]; PREEMERGENCE, Rate 50 g/ha): 2
- Plant response rating (0 to 10 scale), Wild oat ([20]; PREEMERGENCE, Rate 200 g/ha): 7
- Plant response rating, Wild oat ([20]; Rate 200 g/ha, POSTEMERGENCE): 5
- Plant response rating, Cocklebur ([21]; POSTEMERGENCE, Rate 50 g/ha): 9
- Plant response rating, Cocklebur ([21]; PREEMERGENCE, Rate 50 g/ha): 0
- Plant response rating (0 to 10 scale), Cocklebur ([21]; PREEMERGENCE, Rate 200 g/ha): 0
- Plant response rating, Cocklebur ([21]; Rate 200 g/ha, POSTEMERGENCE): 10
- Plant response rating, Rice ([22]; POSTEMERGENCE, Rate 50 g/ha): 6
- Plant response rating, Rice ([22]; PREEMERGENCE, Rate 50 g/ha): 2
- Plant response rating (0 to 10 scale), Rice ([22]; PREEMERGENCE, Rate 200 g/ha): 4
- Plant response rating, Rice ([22]; Rate 200 g/ha, POSTEMERGENCE): 8
- Plant response rating, Giant foxtail ([23]; POSTEMERGENCE, Rate 50 g/ha): 4
- Plant response rating, Giant foxtail ([23]; PREEMERGENCE, Rate 50 g/ha): 0
- Plant response rating (0 to 10 scale), Giant foxtail ([23]; PREEMERGENCE, Rate 200 g/ha): 2
- Plant response rating, Giant foxtail ([23]; Rate 200 g/ha, POSTEMERGENCE): 7
